Measured values from patent publication US20050043331A1, “Substituted 3-(2,5-disubstituted)pyridyl-4-aryl pyrroles for treating inflammatory diseases” (priority 2002, published 2005).
Read-outs that look alike come from different tables or passages of the source.

How the values were obtained:
P38 [1] = target: T1, P38 (Homo sapiens, UniProt Q16539); assay: p38 inhibition in-vitro enzyme assay; assay type: biochemical; details: recombinant 6×His-p38
Procedure: Purified recombinant 6×His-p38 and GST-ATF2 (both expressed in Baculovirus) were served as enzyme and substrate in our p38 inhibition assay. The enzyme reaction was performed in the anti-GST antibody pre-coated 96-well ELISA plate.
A 96-well ELISA plate was coated with 100 μl/well of anti-GST antibody (from Amersham) at a concentration of […] and incubated overnight at 4° C. The ELISA plate was blocked with 100 μl/well of 1% BSA at 25° C. for at least 2 hours, then the plate was washed with 300 μl PBST. The enzyme reaction was started by adding 10 μl of p38 recombinant protein (0.05 nM in final concentration), 10 μl of compound in desired concentration, 10 μl of substrates (670 μM ATP, 200 nM GST-ATF2 in final concentration) and 70 μl of reaction buffer (50 mM HEPES, pH 7.4, 100 mM NaCl, 10 mM MgCl2) and the mixture was incubated at 37° C. for 30 min. Washing the reaction plate with 3×300 μl/well of PBST stopped the enzyme reaction. Detection of the phosphorylated ATF2 substrate was done by the addition of 100 μl of anti-Pi-ATF2 antibody (from Cell Signaling) at a 1:200 dilution. The mixture was incubated at 25° C. for 30 min. A solution of 100 μl of HRP-conjugated goat anti-rabbit antibody (from Pierce) at a 1:250 dilution was added and the mixture and incubated at 25° C. for 30 min. The plate was washed with 6×300 μI PBST and 100 μl of OPD substrate (from Sigma) was then added. The mixture was incubated at 25° C. for 10 min. before adding 100 μl of 3 N H2SO4. The plate was read at 490 nm.
The % inhibition of each test compound was calculated by the following formula: % inhibition=[1−(sample−BKG)/(CTRL−BKG)]×100. The IC50 of each test compound was determined by a triplicate-8 point dose titration curve by Prism GraphPad program. […]

TNF-α [2] = assay: In-vitro whole cell assay for TNF-α inhibition (LPS-stimulated PBMC, ELISA); assay type: cell-based; details: TNF-α by ELISA
How it was run: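 Human PBMC from heparinized venous blood (Ficoll-Hypaque), 1.67×10^6/mL in low-endotoxin RPMI/1% FCS, preincubated with compound 1 h at 37° C, then stimulated with LPS (200 ng/mL stock) overnight at 37° C. Duplicate wells. Supernatant TNF-α quantified by ELISA.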

TNF-α [3] = assay: In vivo rodent assay for inhibition of LPS-induced TNF-α production; parameters: species or system Mice (BALB/cJ females); details: Mus musculus, po, 10 mg/kg oral
Procedure: Mice (BALB/cJ females, Jackson Laboratories) or rats (Lewis males, Charles River) were fasted for 30 min. The animals were dosed orally on a mg/kg basis at a range of times prior to being injected intraperitoneally with LPS at 1 mg/kg and returned to their cages for 1 h. Animals were anesthetized by CO2, exsanguinated by cardiac puncture and whole blood collected (0.1-0.7 mL). The blood was allowed to clot and serum was transferred to a centrifuge tube. This sample was centrifuged, and serum was collected, aliquoted and frozen at −80° C. Samples were tested by commercial ELISA's for TNF-α (Endogen for mouse TNF-α and Biosource for rat TNF-α).

P38 [4] = target: T1, P38; assay: P38 cell, 1 μM LJ; assay type: cell-based; parameters: unit not given here
[5] = 0.5 h, 0.5 h, read-out: Mouse 10 mg/kg % inhib 0.5 h
[6] = 2 h, 2 h, read-out: Mouse 10 mg/kg % inhib 2 h

T1 sequence (Q16539 whole entry): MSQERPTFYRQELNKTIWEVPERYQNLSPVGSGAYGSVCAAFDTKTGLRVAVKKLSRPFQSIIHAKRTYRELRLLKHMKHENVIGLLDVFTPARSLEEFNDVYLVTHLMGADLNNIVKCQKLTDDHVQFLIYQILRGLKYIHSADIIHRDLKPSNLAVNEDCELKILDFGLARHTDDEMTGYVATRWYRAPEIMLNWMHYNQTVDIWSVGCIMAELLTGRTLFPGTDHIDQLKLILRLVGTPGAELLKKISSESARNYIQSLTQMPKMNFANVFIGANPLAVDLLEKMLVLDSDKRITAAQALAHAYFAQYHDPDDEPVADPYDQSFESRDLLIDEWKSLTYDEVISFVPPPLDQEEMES

| SMILES | IC50 (P38 [1]) | IC50 (TNF-α [2]) | P38 cell 1 μM LJ (P38 [4]) | inhibition in vivo at 10 mg/kg (TNF-α [3]; [5]) | inhibition in vivo at 10 mg/kg (TNF-α [3]; [6]) |
| --- | --- | --- | --- | --- | --- |
| C[C@H](Nc1nccc(-c2cn(CCN3CCOCC3)cc2-c2ccc(F)cc2)n1)c1ccccc1 [Cpd 68] | 7 nM | 4 nM | 83 | -21% |  |
| Nc1[nH]cc(-c2ccc(F)cc2)c1-c1ccncc1 [Cpd 66] | 905 nM | 905 nM | 6 |  |  |
| CCOC(=O)c1[nH]cc(-c2ccncc2)c1-c1ccccc1 [Cpd 71] | 572 nM | 149 nM | 9 | 58% |  |
| Fc1ccc(-c2cn3c(c2-c2ccncc2)CN(Cc2ccccc2)CC3)cc1 [Cpd 29, 7-(4-Fluorophenyl)-1,2,3,4-tetrahydro-2-(phenylmethyl)-8-(4-pyridinyl)-pyrrolo[1,2-a]pyrazine] | 1660 nM | 11 nM |  | -6% |  |
| Fc1ccc(-c2c[nH]c(CN3CCc4ccccc4C3)c2-c2ccncc2)cc1 [Cpd 72] |  | 40 nM | 32 | 63% |  |
| OCc1c(-c2ccc(F)cc2)c(-c2ccncc2)cn1CCN1CCOCC1 [Cpd 59] | 16 nM | 277 nM | 4 | -50% |  |
| CN(C)C(=O)c1c(-c2ccc(F)cc2)c(-c2ccncc2)cn1C [Cpd 95] |  | 1380 nM | 21 | 33% |  |
| C[C@H](Nc1nccc(-c2c[nH]cc2-c2ccc(F)cc2)n1)c1ccccc1 [Cpd 67] | 55 nM | 3 nM | 90 |  |  |
| COC(=O)c1c(-c2ccc(F)cc2)c(-c2ccncc2)c(N=C(c2ccccc2)c2ccccc2)n1C [Cpd 98] |  | 52 nM | −2 | -49% |  |
| CCCc1c(-c2ccnc(N[C@@H](C)COC)n2)c(-c2ccc(F)cc2)cn1C(=O)OC(C)(C)C [Cpdd 58] | 1350 nM | 50 nM |  |  |  |
| CCCc1[nH]cc(-c2ccc(F)cc2)c1-c1ccnc(N[C@@H](C)c2ccccc2)n1 [Cpd 53] | 1440 nM | 10 nM |  | -19% |  |
| OCCNCc1[nH]cc(-c2ccc(F)cc2)c1-c1ccncc1 [Cpd 63] | > 2000 nM | 148 nM | 8 |  |  |
| O=C(NCc1ccccc1)c1[nH]cc(-c2ccc(F)cc2)c1-c1ccncc1 [Cpd 51] | > 10000 nM | 14 nM |  | -60% |  |
| O=C1c2c(-c3ccncc3)c(-c3ccc(F)cc3)cn2C(=O)N1Cc1ccccc1 [Cpd 50] | > 10000 nM | 26 nM |  | 51% |  |
| CNC(=O)c1c(-c2ccc(F)cc2)c(-c2ccncc2)cn1C [Cpd 76] |  | 1480 nM | 18 | 67% | 78% |
| CN(Cc1ccccc1)Cc1[nH]cc(-c2ccc(F)cc2)c1-c1ccncc1 [Cpd 73] |  | 91 nM | 78 | 37% |  |

More lines, main results first:

| IC50 (P38 [1]) | IC50 (TNF-α [2]) | P38 cell 1 μM LJ (P38 [4]) | SMILES | inhibition in vivo at 10 mg/kg (TNF-α [3]; [5]) | inhibition in vivo at 10 mg/kg (TNF-α [3]; [6]) |
| --- | --- | --- | --- | --- | --- |
| 856 nM | 63 nM |  | Fc1ccc(-c2c[nH]c(CN3CCNCC3)c2-c2ccncc2)cc1 [Cpd 56] | -41% |  |
|  | 736 nM | 9 | CCOC(=O)c1c(-c2ccc(C)cc2)c(-c2ccncc2)c(Br)n1C [Cpd 79] | -76% |  |
|  | 28 nM | 15 | COC(=O)C(=O)c1c(-c2ccc(F)cc2)c(-c2ccncc2)c(N2CCNCC2)n1C [Cpd 108] | 52% |  |
| > 10000 nM | 145 nM | 20 | COC(=O)c1c(-c2ccc(F)cc2)c(-c2ccncc2)c(NCc2ccncc2)n1C [Cpd 103] | -22% |  |
|  | 17 nM | 32 | COC(=O)c1c(-c2ccc(F)cc2)c(-c2ccncc2)c(N2CCCC2)n1C [Cpd 80] | -38% |  |
| > 10000 nM | 106 nM | 7 | CNC(=O)c1c(-c2ccc(F)cc2)c(-c2ccncc2)c(N2CCNCC2)n1C [Cpd 99] | -7% |  |
| > 10000 nM | 69 nM | 31 | COC(=O)c1c(-c2cccc(F)c2)c(-c2ccncc2)c(N2CCNCC2)n1C [Cpd 105] | 49% |  |
| 3940 nM | 60 nM | 53 | CCOC(=O)c1c(-c2ccc(C)cc2)c(-c2ccncc2)c(N2CCNCC2)n1C [Cpd 83] | 79% |  |
| > 10000 nM | 21 nM | 11 | CCOC(=O)c1c(-c2cccc(C(F)(F)F)c2)c(-c2ccncc2)c(N2CCNCC2)n1C [Cpd 104] | 83% |  |
|  | 543 nM | 11 | CNC(=O)c1c(-c2ccc(F)cc2)c(-c2ccncc2)c(Br)n1C [Cpd 84] | 53% |  |
| > 10000 nM | 93 nM | 12 | CCOC(=O)c1c(-c2cc(F)cc(F)c2)c(-c2ccncc2)c(N2CCNCC2)n1C [Cpd 100] | 75% |  |
|  | 108 nM | 4 | CCn1cc(-c2ccncc2)c(-c2ccc(F)cc2)c1C(=O)OC [Cpd 85] | 53% |  |
|  | 420 nM | 10 | Cn1c(C(=O)OC(C)(C)C)c(-c2ccc(F)cc2)c(-c2ccncc2)c1N1CCNCC1 [Cpd 94] | 25% |  |
| 6180 nM | 7750 nM |  | CCN1CCCC1CNc1c(-c2ccncc2)c(-c2ccc(F)cc2)c(C(=O)OC)n1C (centres unmarked) [Cpd 109] |  |  |
|  | 43 nM | 6 | CC(=O)c1c(-c2ccc(F)cc2)c(-c2ccncc2)c(N2CCN(C(C)=O)CC2)n1C [Cpd 92] | 61% | 28% |
|  | 95 nM | 1 | COC(=O)c1c(-c2ccc(F)cc2)c(-c2ccncc2)c(N2CCN(C)CC2)n1C [Cpd 10, 3-(4-Fluorophenyl)-1-methyl-5-(4-methyl-1-piperazinyl)-4-(4-pyridinyl)-1H-pyrrole-2-carboxylic acid methyl ester] | 89% |  |
| > 10000 nM | 145 nM |  | CCOC(=O)c1[nH]cc(-c2ccc(F)cc2)c1-c1ccncc1 [Cpd 54] |  |  |
|  | 47 nM | 12 | COC(=O)c1c(-c2ccc(F)cc2)c(-c2ccncc2)c(N2CCOCC2)n1C [Cpd 81] | -41% |  |
|  | 51 nM | 12 | COC(=O)c1c(-c2ccc(F)cc2)c(-c2ccncc2)c(N)n1C [Cpd 9, 5-Amino-3-(4-fluorophenyl)-1-methyl-4-(4-pyridinyl)-1H-pyrrole-2-carboxylic acid methyl ester] | 53.9% |  |
| > 10000 nM | 38 nM |  | COC(=O)c1c(-c2ccc(F)cc2)c(-c2ccncc2)c(N(C)CCN2CCOCC2)n1C [Cpd 11, 3-(4-Fluorophenyl)-1-methyl-5-[methyl[2-(4-morpholinyl)ethyl]amino]-4-(4-pyridinyl)-1H-pyrrole-2-carboxylic acid methyl ester] | 66% |  |
|  | 1890 nM | 8 | Cn1c(Br)c(-c2ccncc2)c(-c2ccc(F)cc2)c1C(=O)OC(C)(C)C [Cpd 82] | -7% |  |
| > 10000 nM | 120 nM | 13 | CN(C)C(=O)c1c(-c2ccc(F)cc2)c(-c2ccncc2)c(N2CCNCC2)n1C [Cpd 101] |  |  |
|  | 40 nM | 29 | CC(=O)c1c(-c2ccc(F)cc2)c(-c2ccncc2)c(N2CCNCC2)n1C [Cpd 91] | 39% |  |
